Measured values from PubChem BioAssay (NCI).
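48-hour exposure; five concentrations; linearly interpolated endpoints. GI50 = concentration required for 50% inhibition of growth. TGI marks complete inhibition of growth.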

Legend:
Test in all cases: growth of human tumour cells (NCI), 48 h
UO-31 renal = tested on: UO-31 renal
A549 NSCLC = tested on: A549 NSCLC
SK-MEL-28 melanoma = tested on: SK-MEL-28 melanoma
RXF 393 renal = tested on: RXF 393 renal
HL-60(TB) leukemia = tested on: HL-60(TB) leukemia
LOX IMVI melanoma = tested on: LOX IMVI melanoma
IGROV1 ovarian = tested on: IGROV1 ovarian
HCT-15 colon = tested on: HCT-15 colon
SF-268 CNS = tested on: SF-268 CNS
COLO 205 colon = tested on: COLO 205 colon

## CC(=S)NC1C(Oc2ccc3c(C)cc(=O)oc3c2)OC(CO)C(O)C1O (stereo unspecified)
UO-31 renal
  TGI: > 100 µM
A549 NSCLC
  TGI: > 100 µM
SK-MEL-28 melanoma
  TGI: > 100 µM
RXF 393 renal
  TGI: > 100 µM
HL-60(TB) leukemia
  TGI: > 100 µM
LOX IMVI melanoma
  TGI: > 100 µM
IGROV1 ovarian
  TGI: > 100 µM
HCT-15 colon
  TGI: > 100 µM

## COc1cccc(C(=O)C(O)c2cccc(OC)c2OC)c1OC (stereo unspecified)
SF-268 CNS
  TGI: > 100 µM
COLO 205 colon
  TGI: > 100 µM
UO-31 renal
  TGI: > 100 µM
A549 NSCLC
  TGI: > 100 µM
SK-MEL-28 melanoma
  TGI: > 100 µM
RXF 393 renal
  TGI: > 100 µM
HL-60(TB) leukemia
  TGI: > 100 µM
LOX IMVI melanoma
  TGI: > 100 µM
IGROV1 ovarian
  TGI: > 100 µM
HCT-15 colon
  TGI: > 100 µM

## COc1nc(NC2OCC(OC(C)=O)C(OC(C)=O)C2OC(C)=O)c(N=C(C)C(C)=O)c(=O)n1C (stereo unspecified)
SF-268 CNS
  TGI: > 100 µM
COLO 205 colon
  TGI: > 100 µM
UO-31 renal
  TGI: > 100 µM
A549 NSCLC
  TGI: > 100 µM
SK-MEL-28 melanoma
  TGI: > 100 µM
RXF 393 renal
  TGI: > 100 µM
HL-60(TB) leukemia
  TGI: > 100 µM
LOX IMVI melanoma
  TGI: > 100 µM
IGROV1 ovarian
  TGI: > 100 µM
HCT-15 colon
  TGI: > 100 µM

## C[Si](C)(C)C1=C2C(=O)c3ccccc3C(=O)C2=C([Si](C)(C)C)[C@@H]2CCCC[C@H]12
COLO 205 colon
  TGI: > 100 µM
UO-31 renal
  TGI: > 100 µM
A549 NSCLC
  TGI: > 100 µM
SK-MEL-28 melanoma
  TGI: > 100 µM
RXF 393 renal
  TGI: > 100 µM
HL-60(TB) leukemia
  TGI: > 100 µM
LOX IMVI melanoma
  TGI: > 100 µM
IGROV1 ovarian
  TGI: > 100 µM
HCT-15 colon
  TGI: > 100 µM

## CCC1OC(=O)C(C)C(OC2CC(C)(O)C(O)C(C)O2)C(C)C(O)C(C)(O)CC(C)C(=O)C(C)C(O)C1C (stereo unspecified)
SF-268 CNS
  TGI: > 300 µM
COLO 205 colon
  TGI: > 300 µM
UO-31 renal
  TGI: > 300 µM
A549 NSCLC
  TGI: > 300 µM
SK-MEL-28 melanoma
  TGI: > 300 µM
RXF 393 renal
  TGI: > 300 µM
HL-60(TB) leukemia
  TGI: > 300 µM
LOX IMVI melanoma
  TGI: > 300 µM
IGROV1 ovarian
  TGI: > 300 µM
HCT-15 colon
  TGI: > 300 µM

## CN1C(=N\S(=O)(=O)c2ccc(Cl)cc2)/C(=N/N=P(c2ccccc2)(c2ccccc2)c2ccccc2)c2ccccc21
SF-268 CNS
  TGI: > 100 µM
COLO 205 colon
  TGI: > 100 µM
UO-31 renal
  TGI: > 100 µM
A549 NSCLC
  TGI: > 100 µM
SK-MEL-28 melanoma
  TGI: > 100 µM
RXF 393 renal
  TGI: > 100 µM
IGROV1 ovarian
  TGI: > 100 µM
HCT-15 colon
  TGI: > 100 µM

## Cc1cccc2ns[s+]c12
SF-268 CNS
  TGI: > 100 µM
COLO 205 colon
  TGI: > 100 µM
UO-31 renal
  TGI: > 100 µM
A549 NSCLC
  TGI: > 100 µM
SK-MEL-28 melanoma
  TGI: > 100 µM
HL-60(TB) leukemia
  TGI: > 100 µM
IGROV1 ovarian
  TGI: > 100 µM
HCT-15 colon
  TGI: 39.3 µM

## O=C(Cl)c1cc([N+](=O)[O-])cc([N+](=O)[O-])c1
SF-268 CNS
  TGI: > 100 µM
COLO 205 colon
  TGI: > 100 µM
UO-31 renal
  TGI: > 100 µM
A549 NSCLC
  TGI: > 100 µM
SK-MEL-28 melanoma
  TGI: > 100 µM
HL-60(TB) leukemia
  TGI: > 100 µM
LOX IMVI melanoma
  TGI: > 100 µM
IGROV1 ovarian
  TGI: > 100 µM
HCT-15 colon
  TGI: > 100 µM

## CN(C)CCCn1c2c(c3ccncc3c1=O)C(=O)c1ccccc1-2
SF-268 CNS
  GI50: 1.47 µM
  TGI: 10.7 µM
COLO 205 colon
  GI50: 0.806 µM
  TGI: 14.3 µM
UO-31 renal
  GI50: 0.546 µM
  TGI: 21 µM
A549 NSCLC
  GI50: 1 µM
  TGI: 38.6 µM
SK-MEL-28 melanoma
  GI50: 1.72 µM
  TGI: 4.7 µM
RXF 393 renal
  GI50: 1.14 µM
  TGI: 3.86 µM
HL-60(TB) leukemia
  GI50: 0.858 µM
  TGI: 8.66 µM
LOX IMVI melanoma
  GI50: 0.36 µM
  TGI: 4.95 µM
IGROV1 ovarian
  GI50: 0.955 µM
  TGI: > 100 µM
HCT-15 colon
  GI50: 0.513 µM
  TGI: 11.9 µM

## CN(C)CCCN1c2ccc3ccccc3c2Sc2cccc(Cl)c21
SF-268 CNS
  TGI: 32.5 µM
COLO 205 colon
  TGI: 3.51 µM
UO-31 renal
  TGI: 12 µM
A549 NSCLC
  TGI: 19 µM
SK-MEL-28 melanoma
  TGI: 4.3 µM
RXF 393 renal
  TGI: 10.4 µM
HL-60(TB) leukemia
  TGI: 3.99 µM
IGROV1 ovarian
  TGI: 5.85 µM
HCT-15 colon
  TGI: 22.7 µM

## O=C(CCc1nnc2s/c(=C\c3ccc(Cl)cc3Cl)c(=O)n12)Nc1cc(Cl)c(Cl)cc1Cl
SF-268 CNS
  GI50: > 100 µM
  TGI: > 100 µM
COLO 205 colon
  GI50: > 100 µM
  TGI: > 100 µM
UO-31 renal
  GI50: > 100 µM
  TGI: > 100 µM
A549 NSCLC
  GI50: > 100 µM
  TGI: > 100 µM
SK-MEL-28 melanoma
  GI50: > 100 µM
  TGI: > 100 µM
HL-60(TB) leukemia
  TGI: > 100 µM
IGROV1 ovarian
  GI50: > 100 µM
  TGI: > 100 µM
HCT-15 colon
  GI50: > 100 µM
  TGI: > 100 µM
